6 compounds from ChEMBL document CHEMBL1201862, “PubChem BioAssay data set” (2004) can be followed below.

For orientation: GI50 means the concentration that inhibits growth by half.

Some test systems named below: SK-OV-3; HCC 2998; PC-3; HCT-116; SW-620; OVCAR-5; LOX IMVI; RPMI-8226; HL-60; EKVX; A498; SF-295; MDA-N; BT-549; OVCAR-4; IGROV-1; CCRF-CEM; SF-268; K562; SK-MEL-2.
Holding throughout (assay): DTP human tumour cell line panel, 48 h

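48-hour exposure; five concentrations; linearly interpolated endpoints. The concentration for 50% growth inhibition is given as GI50.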 Calls of active or inactive are those of the source. Rule as the data show it: active = GI50 up to about 1.1 µM and inactive = higher. Non-standard residues stand in square brackets, D forms with d. Residues, ends and D or L forms follow the SMILES beside them. ΔPro = O=C(O)[CH]1C=CCN1 Bounds are passed on as bounds.

As to `O=C(CCc1ccc(O)c(O)c1)NCCc1ccc(O)c(O)c1`, the GI50 is > 100 µM (inactive) with SK-OV-3; > 100 µM (inactive) in the experiment with HCC 2998; > 100 µM (inactive) in the experiment on PC-3; 42.8 µM (inactive) in the experiment on HCT-116; 67.6 µM (inactive) in the experiment on SW-620; > 100 µM (inactive) in the experiment with OVCAR-5. The GI50 was 39.7 µM (inactive) in the experiment on LOX IMVI; > 100 µM (inactive) in the experiment with RPMI-8226; 26.8 µM (inactive) in the experiment with HL-60; > 100 µM (inactive) in the experiment with EKVX; > 100 µM (inactive) in the experiment with A498; > 100 µM (inactive) with SF-295. Moreover, the GI50 in the experiment on MDA-N was 18.1 µM (inactive); in the experiment with BT-549, > 100 µM (inactive); with OVCAR-4, 18.5 µM (inactive); with IGROV-1 it was > 100 µM (inactive); in the experiment with CCRF-CEM, 27.9 µM (inactive); in the experiment with SF-268, > 100 µM (inactive). In addition, the GI50 is 31.7 µM (inactive) with K562 and 83.9 µM (inactive) in the experiment with SK-MEL-2.

As for `CCOC(=O)/C(C[C@H]1OC(C)(C)O[C@@H]1[C@H]1COC(C)(C)O1)=N/O`, the GI50 with SK-OV-3, in the experiment with HCC 2998, in the experiment with PC-3, in the experiment on HCT-116, in the experiment with SW-620 and with OVCAR-5 was > 100 µM (inactive) each time. Further, the GI50 in the experiment with LOX IMVI, in the experiment with RPMI-8226, in the experiment with HL-60, with EKVX, in the experiment with A498 and with SF-295 was > 100 µM (inactive) each time. Moreover, the GI50 in the experiment on MDA-N, in the experiment with BT-549, with OVCAR-4, in the experiment with IGROV-1, in the experiment on CCRF-CEM and in the experiment with SF-268 was > 100 µM (inactive) in each case. In addition, the GI50 with K562 and in the experiment with SK-MEL-2 was > 100 µM (inactive) throughout.

In the case of `COc1c(OC(C)C)c(OC(C)C)c2oc(=O)n3c2c1C(c1ccccc1-n1c(C)ccc1C)C=C3` (stereo not given), the GI50 with SK-OV-3 was > 100 µM (inactive); in the experiment with HCC 2998, 37.9 µM (inactive); with PC-3 it was 14.2 µM (inactive); in the experiment with HCT-116, 16.7 µM (inactive); with SW-620, 32.5 µM (inactive); in the experiment on OVCAR-5 it was > 100 µM (inactive). The GI50 in the experiment with LOX IMVI was 21.5 µM (inactive); with RPMI-8226, 64.6 µM (inactive); in the experiment on HL-60, > 100 µM (inactive); in the experiment with EKVX it was 17.6 µM (inactive); with A498, 92.5 µM (inactive); in the experiment on SF-295, 74.3 µM (inactive). For the same compound, the GI50 in the experiment with MDA-N was 29.2 µM (inactive); in the experiment on BT-549, > 100 µM (inactive); with OVCAR-4, 75 µM (inactive); in the experiment with IGROV-1, 39.9 µM (inactive); with CCRF-CEM, 71.9 µM (inactive); in the experiment with SF-268, 38.1 µM (inactive). Further, the GI50 in the experiment on K562 was > 100 µM (inactive); in the experiment with SK-MEL-2, 95.9 µM (inactive).

For `O=C(O)C1C=CCN1C(=O)C1C=CCN1C(=O)C1C=CCN1` (stereo not given) (H-[ΔPro]-[ΔPro]-[ΔPro]-OH; configuration not given here), the GI50 with SK-OV-3, in the experiment on HCC 2998, in the experiment with PC-3, with HCT-116, in the experiment on SW-620 and in the experiment with OVCAR-5 was > 100 µM (inactive) throughout. Moreover, the GI50 in the experiment on LOX IMVI, in the experiment with RPMI-8226, in the experiment with HL-60, in the experiment with EKVX, in the experiment with A498 and with SF-295 was > 100 µM (inactive) in each case. For the same compound, the GI50 in the experiment on MDA-N, with BT-549, in the experiment with OVCAR-4, with IGROV-1, in the experiment with CCRF-CEM and in the experiment with SF-268 was > 100 µM (inactive) in each case. Also, the GI50 with K562 and with SK-MEL-2 was > 100 µM (inactive) in each case.

Consider `CN(C)CCN1C(=O)c2cccc3cc([N+](=O)[O-])cc(c23)C1=O` [MITONAFIDE], for which the 50% growth inhibitory concentration (GI50) in the experiment with SK-OV-3 was 0.198 µM (active); in the experiment with HCC 2998, 1.11 µM (active); in the experiment on PC-3, 0.931 µM (active); with HCT-116 it was 0.261 µM (active); in the experiment on SW-620, 0.17 µM (active); with OVCAR-5 it was 0.762 µM (active). In addition, the concentration for 50% growth inhibition (GI50) was 0.192 µM (active) in the experiment on LOX IMVI; 0.443 µM (active) with RPMI-8226; 0.0676 µM (active) with HL-60; 0.624 µM (active) with EKVX; 0.167 µM (active) in the experiment on A498; 0.209 µM (active) with SF-295. In addition, the GI50 with MDA-N is 1.49 µM (inactive); with BT-549, 0.904 µM (active); in the experiment with OVCAR-4, 1.2 µM (inactive); with IGROV-1, 0.5 µM (active); in the experiment with CCRF-CEM, 0.163 µM (active); in the experiment on SF-268, 0.324 µM (active). The GI50 with K562 was 1.56 µM (inactive); with SK-MEL-2, 1.37 µM (inactive).

For `O=C(CCCCCCC(=O)Nc1cccnc1)NO` [PYROXAMIDE], the GI50 is 5.19 µM (inactive) in the experiment on SK-OV-3; 4.61 µM (inactive) in the experiment with HCC 2998; 7.26 µM (inactive) in the experiment on PC-3; 3.54 µM (inactive) with HCT-116; 3.4 µM (inactive) in the experiment with SW-620; 4.14 µM (inactive) in the experiment on OVCAR-5. Moreover, the GI50 is 7.29 µM (inactive) with LOX IMVI; 3.14 µM (inactive) in the experiment on RPMI-8226; 10.2 µM (inactive) with HL-60; 47.5 µM (inactive) in the experiment on EKVX; 11 µM (inactive) in the experiment with A498; 21.2 µM (inactive) in the experiment with SF-295. In addition, the GI50 with MDA-N was 2.62 µM (inactive); with BT-549 it was > 100 µM (inactive); in the experiment on OVCAR-4 it was 10.4 µM (inactive); with IGROV-1, 14.7 µM (inactive); with CCRF-CEM, 1.31 µM (inactive); in the experiment with SF-268, 4.26 µM (inactive). Also, the GI50 with K562 is 4.26 µM (inactive); in the experiment with SK-MEL-2 it was 2.72 µM (inactive).
